# Source: US5460820A, “Methods for providing testosterone and optionally estrogen replacement therapy to women” (TheraTech, Inc., priority 1993, dated 1995)
# Tests used:
# [1] = in vivo; cited from earlier work
# [2] = injectable esters; cited from earlier work
# [3] = solubility in receiver medium; assay type: physicochemical; conditions: 0.02% sodium azide solution, skin surface temperature 32°±1° C.
# [4] = without some form of permeation enhancement; cited from earlier work
structure (smiles),measurement,setting,value
C[C@]12CCC(=O)C=C1CC[C@@H]1[C@@H]2CC[C@@]2(C)[C@H]1CC[C@]2(C)O [methyl testosterone],hepatotoxicity,[1],known to be hepatotoxic
CCCCCCC(=O)O[C@H]1CC[C@H]2[C@@H]3CCC4=CC(=O)CC[C@]4(C)[C@H]3CC[C@]12C [testosterone enanthate],fluctuations in hormone levels,[2],marked supraphysiological fluctuations in hormone levels
CCC(=O)O[C@H]1CC[C@H]2[C@@H]3CCC4=CC(=O)CC[C@]4(C)[C@H]3CC[C@]12C [testosterone propionate],fluctuations in hormone levels,[2],marked supraphysiological fluctuations in hormone levels
C[C@]12CC[C@H]3[C@@H](CCC4=CC(=O)CC[C@@]43C)[C@@H]1CC[C@@H]2O [testosterone],solubility in receiver medium,[3],adequate to ensure sink conditions throughout the experiment
same,passage through non-scrotal skin,[4],does not pass through non-scrotal skin at practical fluxes
